Assays:
Assay in all cases: relative viability (nuclei count vs DMSO), 5 days (fraction); higher = more cells survive
CAP-232 + Lapatinib = compound: C[C@H]([C@@H](C(=O)N)NC(=O)[C@@H]1CSSC[C@@H](C(=O)N[C@H](C(=O)N[C@@H](C(=O)N[C@H](C(=O)N1)CCCCN)CC2=CNC3=CC=CC=C32)CC4=CC=C(C=C4)O)NC(=O)[C@@H](CC5=CC=CC=C5)N)O [CAP-232] + CS(=O)(=O)CCNCc1ccc(-c2ccc3ncnc(Nc4ccc(OCc5cccc(F)c5)c(Cl)c4)c3c2)o1 [Lapatinib] (partner 2 µM)
How it was run: (§1)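 Dosing by pin tool came one day after lung cancer cell lines were seeded in 1536-well plates, using either one drug or a fixed anchor-drug dose plus five library-drug doses (not always all listed) in √10 steps. After 5 days, nuclei were counted on 4× images. Relative viability is treated-well nuclei count divided by vehicle-well nuclei count, and values are medians of duplicate plates.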

CAP-232 + Pictilisib = compound: C[C@H]([C@@H](C(=O)N)NC(=O)[C@@H]1CSSC[C@@H](C(=O)N[C@H](C(=O)N[C@@H](C(=O)N[C@H](C(=O)N1)CCCCN)CC2=CNC3=CC=CC=C32)CC4=CC=C(C=C4)O)NC(=O)[C@@H](CC5=CC=CC=C5)N)O [CAP-232] + CS(=O)(=O)N1CCN(Cc2cc3nc(-c4cccc5[nH]ncc45)nc(N4CCOCC4)c3s2)CC1 [Pictilisib] (partner 1 µM)
How it was run: as §1

CAP-232 + Alpelisib = compound: C[C@H]([C@@H](C(=O)N)NC(=O)[C@@H]1CSSC[C@@H](C(=O)N[C@H](C(=O)N[C@@H](C(=O)N[C@H](C(=O)N1)CCCCN)CC2=CNC3=CC=CC=C32)CC4=CC=C(C=C4)O)NC(=O)[C@@H](CC5=CC=CC=C5)N)O [CAP-232] + Cc1nc(NC(=O)N2CCC[C@H]2C(N)=O)sc1-c1ccnc(C(C)(C)C(F)(F)F)c1 [Alpelisib] (partner 2 µM)
How it was run: as §1

CAP-232 + Dasatinib = compound: C[C@H]([C@@H](C(=O)N)NC(=O)[C@@H]1CSSC[C@@H](C(=O)N[C@H](C(=O)N[C@@H](C(=O)N[C@H](C(=O)N1)CCCCN)CC2=CNC3=CC=CC=C32)CC4=CC=C(C=C4)O)NC(=O)[C@@H](CC5=CC=CC=C5)N)O [CAP-232] + Cc1nc(Nc2ncc(C(=O)Nc3c(C)cccc3Cl)s2)cc(N2CCN(CCO)CC2)n1 [Dasatinib] (partner 0.075 µM)
How it was run: as §1

CAP-232 + Phenformin = compound: C[C@H]([C@@H](C(=O)N)NC(=O)[C@@H]1CSSC[C@@H](C(=O)N[C@H](C(=O)N[C@@H](C(=O)N[C@H](C(=O)N1)CCCCN)CC2=CNC3=CC=CC=C32)CC4=CC=C(C=C4)O)NC(=O)[C@@H](CC5=CC=CC=C5)N)O [CAP-232] + N=C(N)NC(=N)NCCc1ccccc1 [Phenformin] (partner 250 µM)
How it was run: as §1

Cell Line	relative viability (CAP-232 + Lapatinib; first compound 0.4 µM)	relative viability (CAP-232 + Lapatinib; first compound 1.265 µM)	relative viability (CAP-232 + Lapatinib; first compound 4 µM)	relative viability (CAP-232 + Lapatinib; first compound 12.65 µM)	relative viability (CAP-232 + Pictilisib; first compound 0.4 µM)	relative viability (CAP-232 + Pictilisib; first compound 1.265 µM)	relative viability (CAP-232 + Pictilisib; first compound 4 µM)	relative viability (CAP-232 + Pictilisib; first compound 12.65 µM)	relative viability (CAP-232 + Alpelisib; first compound 0.4 µM)	relative viability (CAP-232 + Alpelisib; first compound 1.265 µM)	relative viability (CAP-232 + Alpelisib; first compound 4 µM)	relative viability (CAP-232 + Alpelisib; first compound 12.65 µM)	relative viability (CAP-232 + Dasatinib; first compound 0.4 µM)	relative viability (CAP-232 + Dasatinib; first compound 1.265 µM)	relative viability (CAP-232 + Dasatinib; first compound 4 µM)	relative viability (CAP-232 + Dasatinib; first compound 12.65 µM)	relative viability (CAP-232 + Phenformin; first compound 0.4 µM)	relative viability (CAP-232 + Phenformin; first compound 1.265 µM)	relative viability (CAP-232 + Phenformin; first compound 4 µM)	relative viability (CAP-232 + Phenformin; first compound 12.65 µM)
NCI-H2023	0.743	0.761	0.797	0.38	0.253	0.231	0.271	0.133	0.711	0.592	0.637	0.237	0.696	0.598	0.608	0.137	0.448	0.388	0.417	0.188
NCI-H2085	0.833	0.789	0.732	0.878	0.475	0.421	0.355	0.538	1.02	0.886	0.902	1.16	0.232	0.193	0.223	0.19	0.713	0.703	0.741	0.688
NCI-H2087	1.08	1.02	1.03	0.519	0.791	0.983	0.929	0.484	0.983	1.17	0.929	0.841	0.681	0.969	0.757	0.737	0.435	0.419	0.436	0.321
NCI-H2126	0.762	0.694	0.895	0.797	0.501	0.468	0.482	0.525	0.751	0.742	0.8	0.73	0.639	0.585	0.704	0.571	0.525	0.5	0.51	0.56
NCI-H2170	0.274	0.281	0.255	0.272	0.257	0.275	0.259	0.286	0.81	0.865	0.831	0.76	0.684	0.558	0.557	0.58	0.409	0.422	0.438	0.42
NCI-H2228	1.32	0.907	1.66	0.904	0.381	0.768	0.369	0.269	0.816	0.572	0.777	0.848	0.482	0.565	0.479	0.365	0.38	0.253	0.409	0.221
NCI-H2347	0.944	0.898	0.931	0.864	0.412	0.764	0.894	0.508	0.966	0.993	0.986	0.995	0.28	0.285	0.342	0.292	0.281	0.305	0.427	0.296
NCI-H2405	1.03	0.99	1.12	0.722	0.372	0.441	0.565	0.322	0.623	0.924	0.683	0.396	0.233	0.203	0.196	0.208	0.377	0.356	0.37	0.317
NCI-H3122	1	1.09	1	1.05	0.399	0.573	0.568	0.566	0.735	0.76	0.838	0.84	0.781	0.804	0.847	0.833	0.404	0.388	0.395	0.335
PC-3 [JPC-3]	0.503	0.444	0.454	0.461	0.798	0.741	0.84	0.763	1.1	1.08	1.03	1.08	1.08	1.06	1.08	0.908	0.494	0.461	0.459	0.453
PC-14	0.34	0.31	0.409	0.262	0.771	0.661	0.734	0.656	1.06	0.911	1.14	0.926	0.211	0.256	0.253	0.129	0.577	0.56	0.659	0.386
RERF-LC-KJ	0.96	0.859	1.03	0.861	0.563	0.623	0.538	0.42	0.951	0.693	0.833	0.816	0.695	0.871	0.735	0.27	0.493	0.4	0.388	0.315
SK-LU-1	0.869	0.809	0.8	0.979	0.605	0.547	0.651	0.462	1	1.11	1.07	0.96	0.174	0.176	0.158	0.17	0.503	0.553	0.67	0.482
SK-MES-1	0.534	0.469	0.419	0.473	0.335	0.379	0.32	0.323	0.997	0.944	1.06	0.938	0.339	0.317	0.341	0.203	0.684	0.663	0.693	0.521
SW 1573	1.06	1.12	1.21	1.13	0.437	0.587	0.54	0.395	0.744	0.861	0.8	0.672	0.416	0.493	0.603	0.0706	0.337	0.413	0.421	0.163
UMC-11	1.02	0.907	1.14	1.08	0.775	0.796	1	0.876	1.06	1.04	1.16	0.777	0.621	0.494	0.587	0.316	0.309	0.28	0.332	0.295

Reference: the supplement of paper PMC10307832
